One experiment addresses T1, HIV protease (Human immunodeficiency virus type 1 group M subtype B, UniProt P04585).
T1 construct: purified HIV protease was incubated with synthetic peptide
The experiment is described as follows: HIV protease enzyme test (cleavage of synthetic Gag peptide, RP-HPLC). The experiment is classed as biochemical. As to conditions: purified HIV protease, synthetic peptide substrate, read-out: IC50 (50% inhibition of the protease activity). Here is the method:
This is verified by means of an HIV-specific protease enzyme test.
The results of the examples listed below were determined according to the HIV test system described in the following references [cf. Hansen, J., Billich, S., Schulze, T., Sukrow, S. and Molling, K (1988), EMBO Journal, Vol. 7, No. 6, pp. 1785-1791]: purified HIV protease was incubated with synthetic peptide which imitates a cleavage site in the Gag precursor protein and represents an in-vivo cleavage site for the HIV protease. The cleavage products of the synthetic peptide which resulted were analysed by means of reverse phase high performance liquid chromatography (RP-HPLC). The IC50 values which are given refer to the substance concentrations which, under the test conditions set out above, effect a 50% inhibition of the protease activity.

The subject of the next experiment is HIV. As to the kind of experiment: HIV infection in cell culture (syncytium formation in HIV-infected human PBLs). Format: cell-based. As to conditions: Human immunodeficiency virus 1, Lymphocyte, 72 h; HIV-infected normal human blood lymphocytes (PBLs), 37° C., evaluated day 3 to 6 after infection; read-out: IC50 (50% of the virus-induced syncytia suppressed). Here is the method: HIV infection in cell culture
The HIV test was carried out, with minor modifications, according to the method of Pauwels et al. [cf. Journal of Virological Methods 20, (1988), 309-321].
Normal human blood lymphocytes (PBLs) were enriched through Ficoll-Hypaque and stimulated in RPMI 1640, 20% fetal calf serum containing phytohaemagglutinin (90 μg/ml) and interleukin-2 (40 U/ml). For infection with the infectious HIV, the PBLs were pelleted and the cell pellet was subsequently suspended in 1 ml of HIV virus adsorption solution and incubated at 37° C. for 1 hour.
The virus adsorption solution was centrifuged and the infected cell pellet was taken up in growth medium in such a way that the suspension was adjusted to 1×10^5 cells per ml. The cells infected in this manner were pipetted, at 1×10^4 cells/well, into the wells of 96-well microtitre plates.
The first vertical row of the microtitre plate contained only growth medium and cells which were not infected but which otherwise had been treated exactly as described above (cell control). The second vertical row of the microtitre plate contained only HIV-infected cells (virus control) in growth medium. […]
The test mixtures were incubated at 37° C. until the syncytium formation which is typical for HIV appeared in the untreated virus control (between day 3 and 6 after infection) and it was then evaluated microscopically. […]

Regarding `CC(C)(C)S(=O)(=O)CC(Cc1cccc2ccccc12)C(=O)NCc1ccc2c(c1)C(O)C(O)c1cc(CNC(=O)C(Cc3cccc4ccccc34)CS(=O)(=O)C(C)(C)C)ccc1C2=O` (stereo not drawn) [Example 6, (trans)-10,11-Dihydroxy-2,8-bis-[5,5-dimethyl-4,4-dioxo-2-(1-naphthylmethyl)-4-thiahexanoylaminomethyl-5-oxodibenzo[a,d]cyclohepta-1,4-diene], the IC50 at HIV protease came to 2 µM. In the case of `O=C(NCc1ccc2c(c1)[C@@H](O)[C@H](O)c1cc(CNC(=O)OCc3ccccc3)ccc1C2=O)OCc1ccccc1` (relative stereo) [Example 4, (trans)-2,8-Bis-phenylmethoxycarbonylaminomethyl-10,11-dihydroxy-5-oxo-dibenzo[a,d]cyclohepta-1,4-diene], the IC50 in the experiment on HIV turned out to be 10 µM; on HIV protease, 0.005 µM. With `O=C(NCc1ccc2c(c1)[C@@H](O)[C@@H](O)c1cc(CNC(=O)OCc3ccccc3)ccc1C2=O)OCc1ccccc1` [Example 5, (cis)-2,8-Bis-phenylmethoxycarbonylaminomethyl-10,11-dihydroxy-5-oxo-dibenzo[a,d]cyclohepta-1,4-diene], the IC50 in the experiment on HIV was 10 µM.

As usually defined, the IC50 is the concentration that inhibits the measured activity by half.

Values taken from patent US5457108A, “5-oxo-dibenzo[a,d]cyclohepta-1,4-dienes” (Bayer Aktiengesellschaft, priority 1992, dated 1995).
